Data on 15 compounds can be found in patent US20250296939A1, “BENZOTHIOPHENE COMPOUND” (Kyoto Pharmaceutical Industries, Ltd., priority 2022, published 2025).

Where only a bound is given, the exact number is not on record here.

Test [1] deals with NQO1 activity in Hepa1c1c7 cells. Briefly: NAD(P)H: quinone oxidoreductase-1 (NQO1) enzyme induction assay (in vitro). The format is cell-based, mouse. To be noted: about 48 hr, ratio from the base without the compound; for fold induction at 0.4 µM: Mus musculus, Hepa-1c1c7, NQO1 activity upon addition of 400 nM of test compound. On the procedure:
Experimental Example 2: NAD(P)H: Quinone Oxidoreductase-1 (NQO1) Enzyme Induction Assay (In Vitro)
The NQO1 assay was performed based on a previous report (Methods in Enzymology 2004; 382: 243-258). Hepa1c1c7 cells (mouse hepatocyte cell line, ATCC, cat. no. CRL-2026) were cultured in D-MEM medium containing 10% FBS and 1% penicillin/streptomycin (5% CO2, 37° C.), and seeded into 96-well plates (Corning REF. 353072) at 1×10^4 cells/well. A portion of the wells were prepared with medium only for background measurement without seeding cells. The next day, 400 nM of the test compound (0.004% of the final concentration in DMSO) dissolved in DMSO was added thereto, and the wells were incubated for about 48 hr. A well without adding the test compound was prepared for base activity assay in part.
Cell lysate (solution containing 0.8% digitonin, 2 mM EDTA), reaction solution (solution containing 25 mM Tris-HCl, 0.07% albumin, 0.01% Tween-20, 2 U/mL glucose-6-phosphate dehydrogenase, 5 μM flavin adenine dinucleotide, 1 μM glucose-6-phosphate, 30 μM nicotinamide adenine dinucleotide phosphate, 0.03% 3-(4,5-dimethyl-2-thiazolyl)-2,5-diphenyltetrazolium bromide (MTT), and 50 μM menadione), stop solution (solution containing 0.3 mM dicoumarol and 5 mM potassium dihydrogen phosphate, pH 7.4) were prepared. After the medium was removed, 50 μL of the cell lysate was added and incubated at 37° C. for 10 minutes, followed by shaking at room temperature for 10 minutes. 200 μL of reaction solution was added thereto, and allowed to stand for 5 minutes at room temperature. 50 μL of the stop solution was added thereto, and absorbance was measured at 610 nm on a SpectraMax PLUS384 (Molecular devices) or POWERSCAN HT (DS Pharma Biomedical). The test results were analyzed in Excel, and the NQO1 activity upon addition of 400 nM of test compound was calculated as a ratio from the base without the compound.
The results of each test compound in this test are shown in the following Table 2 (A: 5<NQO1 activity ratio, B: 3<NQO1 activity ratio 5, C: 1.5<NQO1 activity ratio 3).

Test [2] has as its target GST-fused human Keap1 (amino acid residues: 325-642) protein (Homo sapiens (Human), UniProt Q14145). Briefly: FP assay (in vitro): inhibition of binding between Nrf2 and Keap1 by fluorescence polarization. To be noted: 20 nM GST-fused human Keap1, 10 nM FITC-labeled Nrf2 peptide, 2 hr at room temperature. On the procedure: Experimental Example 1: FP Assay (In Vitro)
The inhibitory activity of test compounds on the binding between Nrf2 and Keap1 was determined by fluorescence polarization. A solution of 50 mM Tris-HCl pH.8.0 (NACALAI, REF: 06938-15), and 5 mM DTT (SIGMA-ALDRICH, REF: 646563-10X.5 mL) was used as a buffer solution. 8 μL of a buffer solution containing 40 nM GST-fused human Keap1 (amino acid residues: 325-642) protein (Protein tech, REF: Ag0779) was taken in a black 384-well plate (final concentration 20 nM), and 4 μL of the test compound solution prepared to each concentration in buffer solution was added thereto. A well containing a portion of the buffer solution without Keap1 was placed as a negative control. A well with no compound was used as a positive control. 40 nM of FITC-labeled Nrf2 peptide (FITC-X-LQLDEETGEFLPIQ (X=ε-Acp), Peptide Institute Inc.) was added thereto (10 nM final concentration). The wells were incubated at room temperature for 2 hr, and then fluorescence polarization was measured with a plate reader SPECTRAMAX Paradigm (Molecular devices) at excitation wavelength of 485 nm and fluorescence wavelength of 535 nm. The fluorescence polarization of the negative control was set to 100% inhibition and that of the positive control to 0% inhibition, and the inhibitory rate upon addition of the test compound was calculated using the following formula.
Background: Fluorescence polarisation rises when a labelled molecule tumbles more slowly, as on binding a larger partner.

GST-fused human Keap1 (amino acid residues: 325-642) protein, sequence (Q14145 325-624 limits assumed): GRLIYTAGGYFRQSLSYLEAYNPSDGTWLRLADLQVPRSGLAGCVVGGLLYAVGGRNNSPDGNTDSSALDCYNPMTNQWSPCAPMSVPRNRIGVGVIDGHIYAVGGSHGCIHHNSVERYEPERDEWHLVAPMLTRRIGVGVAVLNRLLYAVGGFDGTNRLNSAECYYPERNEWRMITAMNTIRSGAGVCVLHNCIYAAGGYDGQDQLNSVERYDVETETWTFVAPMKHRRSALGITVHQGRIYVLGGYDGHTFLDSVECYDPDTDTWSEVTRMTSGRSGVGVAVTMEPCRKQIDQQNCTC

As a reminder, the fold induction is the signal under treatment as a multiple of the control signal. The term IC50 denotes the midpoint of a concentration-inhibition curve. Low readings indicate inhibition by little substance, high ones a need for much substance. `Cc1c([C@H](CC(=O)O)c2cc(CN3Cc4nc(O)ccc4CC(C4CC4)C3)c3sccc3c2)ccc2c1nnn2C` (single isomer, unassigned) [Example 88, (3R)-3-(7-{[(6S*)-6-Cyclopropyl-2-hydroxy-5,6,7,9-tetrahydro-8H-pyrido[2,3-c]azepin-8-yl]methyl}-1-benzothiophen-5-yl)-3-(1,4-dimethyl-1H-benzotriazol-5-yl)propanoic acid]: the fold induction at 0.4 µM in test [1] is greater than 5. The 50% inhibitory concentration (IC50) in test [2] fell in the range of 30 to 300 nM.
In the same order, the values of `CC[C@@H]1CN(Cc2cc([C@@H](CC(=O)O)c3cc(C#N)c4c(nnn4C)c3C)cc3ccsc23)Cc2nc(O)ccc2O1` [Example 33, (3R)-3-(7-Cyano-1,4-dimethyl-1H-benzotriazol-5-yl)-3-(7-{[(2R)-2-ethyl-7-hydroxy-2,3-dihydropyrido[2,3-f][1,4]oxazepin-4(5H)-yl]methyl}-1-benzothiophen-5-yl)propanoic acid] are greater than 5 and 10 to 30 nM.
The corresponding values for `Cc1c([C@@H](CC(=O)O)c2cc(CN3Cc4cnc(O)cc4OC4(CC4)C3)c3sccc3c2)ccc2c1nnn2C` [Example 79, (3S)-3-(1,4-Dimethyl-1H-benzotriazol-5-yl)-3-{7-[(8′-hydroxy-3′H-spiro[cyclopropane-1,2′-pyrido[3,4-f][1,4]oxazepin]-4′ (5′H)-yl)methyl]-1-benzothiophen-5-yl}propanoic acid] are 3 to 5 and 10 to 30 nM.
The corresponding values for `CC[C@@H]1CN(Cc2cc([C@@H](CC(=O)O)c3cc(OC)c4c(nnn4C)c3C)cc3ccsc23)Cc2nc(O)ccc2O1` [Example 21, (3R)-3-(7-{[(2R)-2-Ethyl-7-hydroxy-2,3-dihydropyrido[2,3-f][1,4]oxazepin-4(5H)-yl]methyl}-1-benzothiophen-5-yl)-3-(7-methoxy-1,4-dimethyl-1H-benzotriazol-5-yl)propanoic acid] are greater than 5 and 10 to 30 nM.
`CC[C@@H]1CN(Cc2cc([C@H](CC(=O)O)c3ccc4c(nnn4C)c3C)cc3ccsc23)Cc2nc(O)ccc2O1` [Example 1, (3S)-3-(1,4-Dimethyl-1H-benzotriazol-5-yl)-3-(7-{[(2R)-2-ethyl-7-hydroxy-2,3-dihydropyrido[2,3-f][1,4]oxazepin-4(5H)-yl]methyl}-1-benzothiophen-5-yl)propanoic acid]: the fold induction at 0.4 µM in test [1] was greater than 5. For the same compound, the IC50 in test [2] lay in the range of 10 to 30 nM.
In the case of `CC[C@@H]1CN(Cc2cc([C@@H](CC(=O)O)c3ccn4c(C)nnc4c3C)cc3ccsc23)Cc2nc(O)ccc2O1` (single isomer, unassigned) [Example 53, (3S*)-3-(3,8-Dimethyl[1,2,4]triazolo[4,3-a]pyridin-7-yl)-3-(7-{[(2R)-2-ethyl-7-hydroxy-2,3-dihydropyrido[2,3-f][1,4]oxazepin-4(5H)-yl]methyl}-1-benzothiophen-5-yl)propanoic acid], the activity ratio result in test [1] (NQO1 activity upon addition of 400 nM of test compound) was “B (B: 3<NQO1 activity ratio 5)”. For the same compound, the concentration for half-maximal inhibition (IC50) in test [2] is 10 to 30 nM.
For the compound `Cc1c([C@@H](CC(=O)O)c2cc(CN3Cc4nc(O)ccc4O[C@H](C)C3)c3sccc3c2)ccc2c1nnn2C` [Example 15, (3S)-3-(1,4-Dimethyl-1H-benzotriazol-5-yl)-3-(7-{[(2R)-7-hydroxy-2-methyl-2,3-dihydropyrido[2,3-f][1,4]oxazepin-4(5H)-yl]methyl}-1-benzothiophen-5-yl)propanoic acid], the fold induction at 0.4 µM in test [1] was greater than 5. The same compound yielded an IC50 in test [2] of 10 to 30 nM.
For `CC[C@@H]1CN(Cc2cc([C@@H](CC(=O)O)c3ccn4c(C)nnc4c3C)cc3ccsc23)Cc2nc(O)ccc2O1` (single isomer, unassigned) [Example 52, (3R*)-3-(3,8-Dimethyl[1,2,4]triazolo[4,3-a]pyridin-7-yl)-3-(7-{[(2R)-2-ethyl-7-hydroxy-2,3-dihydropyrido[2,3-f][1,4]oxazepin-4(5H)-yl]methyl}-1-benzothiophen-5-yl)propanoic acid], in test [1], the fold induction at 0.4 µM was 3 to 5. In test [2], this compound registered a half-inhibitory concentration (IC50) of 30 to 300 nM.
The corresponding values for `Cc1c([C@H](c2cc(CN3Cc4nc(O)ccc4O[C@H](C4CC4)C3)c3sccc3c2)C(C)(C)C(=O)O)cnc2c1nnn2C` [Example 51, (3S)-3-(7-{[(2R)-2-Cyclopropyl-7-hydroxy-2,3-dihydropyrido[2,3-f][1,4]oxazepin-4(5H)-yl]methyl}-1-benzothiophen-5-yl)-3-(3,7-dimethyl-3H-[1,2,3]triazolo[4,5-b]pyridin-6-yl)-2,2-dimethylpropanoic acid] are greater than 5 and 10 to 30 nM.
The corresponding values for `Cc1c([C@H](CC(=O)O)c2cc(CN3Cc4nc(O)ccc4CC(C4CC4)C3)c3sccc3c2)cnc2c1nnn2C` (single isomer, unassigned) [Example 90, (3R)-3-(7-{[(6R*)-6-Cyclopropyl-2-hydroxy-5,6,7,9-tetrahydro-8H-pyrido[2,3-c]azepin-8-yl]methyl}-1-benzothiophen-5-yl)-3-(3,7-dimethyl-3H-[1,2,3]triazolo[4,5-b]pyridin-6-yl)propanoic acid] are greater than 5 and 30 to 300 nM.
In the same order, the values of `Cc1c([C@@H](c2cc(CN3Cc4nc(O)ccc4OC4(CC4)C3)c3sccc3c2)C(C)(C)C(=O)O)ccc2c1nnn2C` [Example 47, (3R)-3-(1,4-Dimethyl-1H-benzotriazol-5-yl)-3-{7-[(7′-hydroxy-3′H-spiro[cyclopropane-1,2′-pyrido[2,3-f][1,4]oxazepin]-4′ (5′H)-yl)methyl]-1-benzothiophen-5-yl}-2,2-dimethylpropanoic acid] are 1.5 to 3 and 300 to 3000 nM.
`CC[C@H]1Cc2cccnc2CN(Cc2cc([C@@H](CC(=O)O)c3ccc4c(nnn4C)c3C)cc3ccsc23)C1` [Example 69, (3R)-3-(1,4-Dimethyl-1H-benzotriazol-5-yl)-3-(7-{[(6S)-6-ethyl-5,6,7,9-tetrahydro-8H-pyrido[2,3-c]azepin-8-yl]methyl}-1-benzothiophen-5-yl)propanoic acid]: the fold induction at 0.4 µM in test [1] was greater than 5. In addition, the IC50 in test [2] was 10 to 30 nM.
In the same order, the values of `Cc1c([C@@H](CC(=O)O)c2cc(CN3Cc4nc(O)ccc4O[C@H](C(F)(F)F)C3)c3sccc3c2)ccc2c1nnn2C` [Example 38, (3S)-3-(1,4-Dimethyl-1H-benzotriazol-5-yl)-3-(7-{[(2S)-7-hydroxy-2-(trifluoromethyl)-2,3-dihydropyrido[2,3-f][1,4]oxazepin-4(5H)-yl]methyl}-1-benzothiophen-5-yl)propanoic acid] are greater than 5 and no more than 10 nM.
In the same order, the values of `CC[C@H]1Cc2ccc(O)nc2CN(Cc2cc([C@H](CC(=O)O)c3ccc4c(nnn4C)c3C)cc3ccsc23)C1` [Example 73, (3S)-3-(1,4-Dimethyl-1H-benzotriazol-5-yl)-3-(7-{[(6S)-6-ethyl-2-hydroxy-5,6,7,9-tetrahydro-8H-pyrido[2,3-c]azepin-8-yl]methyl}-1-benzothiophen-5-yl)propanoic acid] are greater than 5 and 10 to 30 nM.
Take `CC[C@H]1Cc2cccnc2CN(Cc2cc([C@H](CC(=O)O)c3cnc4c(nnn4C)c3C)cc3ccsc23)C1` [Example 76, (3S)-3-(3,7-Dimethyl-3H-[1,2,3]triazolo[4,5-b]pyridin-6-yl)-3-(7-{[(6S)-6-ethyl-5,6,7,9-tetrahydro-8H-pyrido[2,3-c]azepin-8-yl]methyl}-1-benzothiophen-5-yl)propanoic acid]: the fold induction at 0.4 µM in test [1] was greater than 5. The same compound returned a concentration for half-maximal inhibition (IC50) in test [2] of 10 to 30 nM.
